Here are results for eleven compounds from patent publication US10508089B2, “Use of N-(1,3,4-Oxadiazol-2-yl)arylcarboxamides or their salts for controlling unwanted plants in areas of transgenic crop plants being tolerant to HPPD inhibitor herbicides” (BASF SE, priority 2014, dated 2019).

The structures appear in SMILES notation.

Assay [1] has as its target PfHPPD Evo 41 SEQ ID No 29 (Pseudomonas sp., UniProt P80064, A172V/A339Q/A53E/D148E/D45N/E105D/E287Q/E300V/E334P/F143Y/G286D/G335W/H150N/H254A/H63N/I158V/I187A/I249V/K338A/K92N/L18F/N24G/N280D/S245T/S257K/S301E/T205S/V65I). As to the kind of experiment: biochemical. More on the design: species or system Pseudomonas fluorescens.
Assay [2] deals with PfHPPD Evo 40 SEQ ID No 27 (Pseudomonas sp., UniProt P80064, A172V/A339E/A53E/D148E/D45N/E105D/E287Q/E300V/E334P/F143Y/G286D/G335S/H150N/H254A/H63N/I158V/I187A/I249V/K92N/L18F/N24G/N280D/S245T/S257K/S301E/T205S/V65I). Put plainly: biochemical. More on the design: species or system Pseudomonas fluorescens.
Chain of PfHPPD Evo 40 SEQ ID No 27 (P80064 1-354 with tags or gaps with the stated changes limits assumed): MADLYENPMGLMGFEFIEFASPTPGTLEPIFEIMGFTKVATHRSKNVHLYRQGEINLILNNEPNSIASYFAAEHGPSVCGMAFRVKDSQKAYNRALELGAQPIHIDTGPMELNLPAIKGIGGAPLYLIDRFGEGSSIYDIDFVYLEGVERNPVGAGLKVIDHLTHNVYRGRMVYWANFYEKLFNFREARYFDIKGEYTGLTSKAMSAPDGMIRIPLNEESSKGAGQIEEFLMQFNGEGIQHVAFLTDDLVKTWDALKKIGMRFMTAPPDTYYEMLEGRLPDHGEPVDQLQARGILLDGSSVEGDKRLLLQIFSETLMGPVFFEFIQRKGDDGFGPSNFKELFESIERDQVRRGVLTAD
The target in assay [3] is Avena HPPD SEQ ID No 2 (Avena sativa, UniProt A0ACD5V6K6). Put plainly: Determination of HPPD activity in presence of N-(1,3,4-Oxadiazol-2-yl)arylcarboxamides (pI50). Conditions: negative log of molar concentration; inhibitor 0.1 to 100 μM; room temperature; 600 μM HPP. The format is biochemical. As for the experimental part: (§1) HPPD activity was measured at room temperature by adding appropriate amounts of HPPD to a solution of 200 mM Tris-HCl pH 7.6, 10 mM ascorbate, 20 μM FeSO4, 650 units of catalase, 8 μg HGA dioxygenase (HGA: homogentisate) and 600 μM HPP in a total volume of 1 ml. Initial reaction rates in the absence or presence of inhibitors were determined from the increase in absorbance at 318 nm due to the formation of maleylacetoacetate (ϵ318=11,900 M−1 cm−1). pI50-values (the negative log values of the concentration of inhibitor necessary to inhibit 50% of the enzyme activity in molar concentration were determined from dose-response plots of HPPD activity versus inhibitor concentrations tested (0.1 to 100 μM) using the 4 Parameter Logistic Model or Sigmoidal Dose-Response Model of the ID Business Solutions Ltd. XLfit software suite. Due to the UV absorption of the HPPD inhibitors tested, inhibitor concentrations >100 μM could not be tested. In cases, the symbol “>” is used this means that the value was far higher than the one indicated but could not be precisely calculated within in the range of concentration of inhibitor tested.
Chain of Avena HPPD SEQ ID No 2 (A0ACD5V6K6 entry or part of it): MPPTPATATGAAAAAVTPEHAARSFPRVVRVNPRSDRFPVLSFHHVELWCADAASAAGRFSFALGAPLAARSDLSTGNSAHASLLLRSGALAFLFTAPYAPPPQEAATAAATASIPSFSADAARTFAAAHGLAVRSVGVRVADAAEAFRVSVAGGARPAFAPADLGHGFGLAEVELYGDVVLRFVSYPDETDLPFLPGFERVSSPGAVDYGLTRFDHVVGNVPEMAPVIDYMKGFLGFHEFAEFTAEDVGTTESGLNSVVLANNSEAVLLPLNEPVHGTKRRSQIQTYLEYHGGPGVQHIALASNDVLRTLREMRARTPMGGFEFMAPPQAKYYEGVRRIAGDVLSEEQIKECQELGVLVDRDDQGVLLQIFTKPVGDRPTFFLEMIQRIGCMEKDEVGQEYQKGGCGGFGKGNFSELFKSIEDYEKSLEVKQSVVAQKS
(§2) In the 1st column of Table 8, the chemical compound employed in the assay is named (according to the numbering of the Tables 1 to 7, above). In columns 2, 3, 4, and 5 the pI50-values of the corresponding chemical compounds against various HPPD enzymes (name and SEQ ID Nos are indicated, respectively) are given.

Assay [4] addresses FMP 37 SEQ ID No 9 (Blepharisma japonicum, UniProt A8R3H6). The description is as above. The format is biochemical. Conditions: negative log of molar concentration; inhibitor 0.1 to 100 μM; room temperature; 600 μM HPP. As for the experimental part: as §1, §2
Assay [5] addresses PfHPPDEvo40 (Pseudomonas sp., UniProt P80064, A172V/A339E/A53E/D148E/D45N/E105D/E287Q/E300V/E334P/F143Y/G286D/G335S/H150N/H254A/H63N/I158V/I187A/I249V/K92N/L18F/N24G/N280D/S245T/S257K/S301E/T205S/V65I). Put plainly: Brown color assay of HPPD extracts on solid media containing an HPPD inhibitor. To be noted: 250 uM inhibitor in solid media.
Assay [6] relates to wild-type soybean shoots. Put plainly: Soybean transformation, selection of shoots with HPPD inhibitor. The format is in vivo. Conditions: wild-type soybean shoots treated with the same amount of the respective HPPD inhibitor. From the text: (§3) Soybean transformation was achieved by using methods by best mode well known in the art, such as the one described using the Agrobacterium tumefaciens mediated transformation soybean half-seed explants using essentially the method described by Paz et al. (2006), Plant cell Rep. 25:206. Transformants were identified using various HPPD inhibitors tembotrione or isoxaflutole as selection marker. The appearance of green shoots can be observed, and documented as an indicator of tolerance to the respective herbicide.

In assay [7] the test system is tolerant transgenic soybean shoots. The assay is described as above. The format is in vivo. Conditions: compared with untreated wild-type soybean shoots.
Description: as §3

Chain of FMP 37 SEQ ID No 9 (A8R3H6 entry or part of it): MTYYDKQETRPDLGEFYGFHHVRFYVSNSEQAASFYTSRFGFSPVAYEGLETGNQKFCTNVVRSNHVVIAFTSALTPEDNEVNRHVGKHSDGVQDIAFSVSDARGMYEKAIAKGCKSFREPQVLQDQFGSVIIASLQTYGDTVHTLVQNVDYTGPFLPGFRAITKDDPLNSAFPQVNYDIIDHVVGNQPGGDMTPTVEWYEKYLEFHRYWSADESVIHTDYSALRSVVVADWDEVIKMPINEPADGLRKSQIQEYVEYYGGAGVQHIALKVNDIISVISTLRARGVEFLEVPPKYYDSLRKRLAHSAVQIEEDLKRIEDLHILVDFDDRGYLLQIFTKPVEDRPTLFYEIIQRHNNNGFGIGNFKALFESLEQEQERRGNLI
Chain of PfHPPD Evo 41 SEQ ID No 29 (P80064 1-354 with tags or gaps with the stated changes limits assumed): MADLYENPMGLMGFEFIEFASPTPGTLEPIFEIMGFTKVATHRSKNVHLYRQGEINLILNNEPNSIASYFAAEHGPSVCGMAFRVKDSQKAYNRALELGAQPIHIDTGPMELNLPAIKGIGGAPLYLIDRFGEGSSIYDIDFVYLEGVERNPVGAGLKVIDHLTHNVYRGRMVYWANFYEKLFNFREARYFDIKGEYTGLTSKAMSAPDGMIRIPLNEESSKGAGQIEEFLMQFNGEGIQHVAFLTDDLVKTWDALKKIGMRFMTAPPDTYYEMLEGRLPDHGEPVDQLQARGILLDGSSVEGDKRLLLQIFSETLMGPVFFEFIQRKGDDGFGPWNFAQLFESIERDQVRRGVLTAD

Regarding `Cc1nnc(NC(=O)c2ccc(C(F)(F)F)c([S+](C)[O-])c2C)o1` (centres unmarked) [Compound 2-144], the 50% inhibitory concentration (IC50) was 10 µM in assay [1], 6.31 µM in assay [2], 3.98 µM in assay [3] and 12.6 µM in assay [4].
The like results for `Cc1nnc(NC(=O)c2ccc(C(F)(F)F)c([S+](C)[O-])c2Cl)o1` (centres unmarked) [Compound 2-360] were, in that order, 20 µM, 15.8 µM, 3.98 µM and 20 µM.
As to `Cc1nnc(NC(=O)c2ccc(C(F)(F)F)c(S(C)(=O)=O)c2Cl)o1` [Compound 2-361], the IC50 in assay [1] is 7.94 µM; in assay [2], 5.01 µM; in assay [3] it was 1.58 µM; in assay [4] it was 12.6 µM.
Consider `Cc1nnc(NC(=O)c2ccc(C(F)(F)F)c(-n3cccn3)c2Cl)o1` [Compound 2-363], for which the IC50 was 12.6 µM in assay [1], 6.31 µM in assay [2], 1.58 µM in assay [3] and 10 µM in assay [4].
With `Cc1nnc(NC(=O)c2ccc(C(F)(F)F)c(OCCF)c2Cl)o1` [Compound 2-364], the IC50 in assay [1] is 31.6 µM; in assay [2], 12.6 µM; in assay [3], 1.58 µM; in assay [4], 7.94 µM.
Taken in the same sequence, the figures for `COCc1nnc(NC(=O)c2ccc(C(F)(F)F)c(S(C)(=O)=O)c2C)o1` [Compound 5-145] were under 5.01 µM, under 5.01 µM, 3.16 µM and 10 µM.
In the case of `Cc1c(C(=O)Nc2nnc(C3CC3)o2)ccc(C(F)(F)F)c1[S+](C)[O-]` (centres unmarked) [Compound 6-37], the IC50 in assay [1] was 158 µM; in assay [2], 126 µM; in assay [3] it was 39.8 µM; in assay [4], 158 µM.
Take `Cc1nnc(NC(=O)c2ccc(C(F)(F)F)nc2C)o1` [Compound 7-132]: the IC50 in assay [1] was 251 µM; in assay [2], 200 µM; in assay [3], 15.8 µM; in assay [4] it was 7.94 µM.
`CS(=O)(=O)c1cc(C(F)(F)F)ccc1C(=O)C(C#N)C(=O)C1CC1` (centres unmarked) [diketonitrile]: the “tolerance of variant PfHPPDEvo40 compared to PfHPPD336W (brown pigment formation, titration of extract)” value in assay [5] was “improved tolerance”.
Consider `CS(=O)(=O)c1cc(C(F)(F)F)ccc1C(=O)c1cnoc1C1CC1` [isoxaflutole], for which the “appearance of shoots under HPPD inhibitor selection” value in assay [6] is recorded as “entirely bleached”; in assay [7] it was “normal greening”.
As for `CS(=O)(=O)c1ccc(C(=O)C2C(=O)CCCC2=O)c(Cl)c1COCC(F)(F)F` [tembotrione], the “tolerance of variant PfHPPDEvo40 compared to PfHPPD336W (brown pigment formation, titration of extract)” value in assay [5] is listed as “improved tolerance”. Besides, the “appearance of shoots under HPPD inhibitor selection” value in assay [6] was “entirely bleached”; in assay [7], “normal greening”.
